Reference: US9205132B2, “Method of lowering mortality” (CORTHERA, INC., priority 2008, dated 2015)
“Also recorded” adds a separate entry of the source.

Legend:
[1] = tested on: patients with acute heart failure (AHF); test: Patient-reported dyspnea (7-point Likert Scale, 100-mm VAS), Pre-RELAX-AHF trial; format: in vivo, human; settings: for average improvement in dyspnea VAS over the 5 days: corresponds to AUC to Day 5; for average change in dyspnea VAS over the 14 days: corresponds to AUC to Day 14; for Dyspnea AUC Change from baseline to Day 5 (VAS; mm*hr) / Dyspnea AUC Change from baseline to Day 14 (VAS; mm*hr): mean ± SD
Method: Study Procedures. The study was approved by the relevant ethics committees, institutional review hoards and regulatory authorities, and conducted under the International Conference on Harmonization Good Clinical Practice guidelines. All patients provided informed written consent prior to participation. […] The placebo used for the study was the same solution as the diluent used to prepare the 100 μg/kg/day dose. The randomization ratio was 3:2:2:2:2, respectively, Relaxin (Corthera, San Mateo, Calif.) was manufactured using recombinant techniques and was identical to the naturally-occurring peptide hormone. By protocol, the study drug infusion was to be terminated if the patient's SBP was reduced to <100 mmHg or by >40 mmHg compared to baseline in two successive measurements, 15 minutes apart. Investigators were not prohibited from utilizing any standard medication, thought necessary to treat patients enrolled in the study, including additional vasodilators, following a 4-hour washout period during which time IV vasodilators, IV pure inotropes and meals were withheld, hemodynamic, renal, and clinical responses to 48 hours of study drug infusion were assessed.
Study Endpoints. […] 4.) Length of initial hospital stay.
Dyspnea Responses. Results are presented via the Visual Analog Score (VAS) and the Likert Score. The VAS score measures a characteristic of attitude that ranges across a continuum of values, for example, the amount of discomfort an AHF patient feels ranges across a continuum from none to an extreme amount of discomfort and/or pain including dyspnea, hypertension, high blood pressure, arrhythmia and reduced renal blood flow. From the patient's perspective this spectrum appears continuous, which the VAS captures. Operationally a VAS is usually a horizontal line, 100 mm in length, anchored by word descriptors at each end (e.g., no discomfort on one end and severe discomfort on the other end). The patients marked on the line the point that they fell represented their perception of their current state. The VAS score is determined by measuring in millimeters from the left hand end of the line to the point that the patient marks (Wewers et al., Research in Nursing and Health 13:227-236, 1990).
The Likert Score is a unidimensional sealing method known in the art, wherein the set of scale items are rated on a numerical (herein 7-point) Disagree-Agree response scale. Each patient was asked to rate each item on the response scale. The final score for the respondents on the scale is the sum of their ratings for all of the items.

[2] = tested on: patients with systemic sclerosis; test: Clinical trial of relaxin in patients with systemic sclerosis, continuous SQ infusion for six months; format: in vivo, human
Text: Overview. Clinical trials with relaxin have also been conducted on systemic sclerosis patients, 257 human subjects who suffer from systemic sclerosis, a serious fibrotic disease, have been treated with relaxin by continuous and subcutaneous (SQ) infusion for six months. […] These findings support the hypothesis that relaxin administration was associated with balanced systemic and renal vasodilation.

[3] = 30 mcg/kg/d IV 48 h, listed as relaxin

Substance: Relaxin
- percent moderate or marked improvement in dyspnea (Likert), sustained over 14 days ([1]; 30 μg/kg/day, AHF patients with SBP greater than the median, FIG. 7): about 90%
- improvement in dyspnea within 6, 12 and 24 hours of administration ([1]; 30 μg/kg/day, FIG. 12): statistically significant improvement in dyspnea
- % moderately/markedly better dyspnea at 6, 12 and 24 hrs (Likert) ([1]; 10 mcg/kg/d IV 48 h): 27.5%
- average improvement in dyspnea VAS over the 5 days ([1]; 10 mcg/kg/d IV 48 h): 21 mm
- average change in dyspnea VAS over the 14 days ([1]; 10 mcg/kg/d IV 48 h): 10 mm
- Dyspnea AUC Change from baseline to Day 5 (VAS; mm*hr) ([1]; 10 mcg/kg/d IV 48 h): 2500 ± 2908 mm*hr
- Dyspnea AUC Change from baseline to Day 14 (VAS; mm*hr) ([1]; 10 mcg/kg/d IV 48 h): 6366 ± 10078 mm*hr
- % moderately/markedly better dyspnea at 6, 12 and 24 hrs (Likert) ([1]; 30 mcg/kg/d IV 48 h): 40.5%
- average improvement in dyspnea VAS over the 5 days ([1]; 30 mcg/kg/d IV 48 h): 22 mm
- average change in dyspnea VAS over the 14 days ([1]; 30 mcg/kg/d IV 48 h): 25 mm
- % moderately/markedly better dyspnea at 6, 12 and 24 hrs (Likert) [1, 3]: 40.5%
- Dyspnea AUC Change from baseline to Day 5 (VAS; mm*hr) ([1]; 30 mcg/kg/d IV 48 h): 2567 ± 2898 mm*hr
- Dyspnea AUC Change from baseline to Day 14 (VAS; mm*hr) ([1]; 30 mcg/kg/d IV 48 h): 8214 ± 8712 mm*hr
- Dyspnea AUC Change from baseline to Day 5 (VAS; mm*hr) [1, 3]: 2567±2898 mm*hr
- Dyspnea AUC Change from baseline to Day 14 (VAS; mm*hr) [1, 3]: 8214±8712 mm*hr
- % moderately/markedly better dyspnea at 6, 12 and 24 hrs (Likert) ([1]; 100 mcg/kg/d IV 48 h): 13.5%
- average improvement in dyspnea VAS over the 5 days ([1]; 100 mcg/kg/d IV 48 h): 21 mm
- average change in dyspnea VAS over the 14 days ([1]; 100 mcg/kg/d IV 48 h): 25 mm
- Dyspnea AUC Change from baseline to Day 5 (VAS; mm*hr) ([1]; 100 mcg/kg/d IV 48 h): 2486 ± 2865 mm*hr
- Dyspnea AUC Change from baseline to Day 14 (VAS; mm*hr) ([1]; 100 mcg/kg/d IV 48 h): 8227 ± 9707 mm*hr
- % moderately/markedly better dyspnea at 6, 12 and 24 hrs (Likert) ([1]; 250 mcg/kg/d IV 48 h): 22.4%
- average improvement in dyspnea VAS over the 5 days ([1]; 250 mcg/kg/d IV 48 h): 18 mm
- average change in dyspnea VAS over the 14 days ([1]; 250 mcg/kg/d IV 48 h): 21 mm
- Dyspnea AUC Change from baseline to Day 5 (VAS; mm*hr) ([1]; 250 mcg/kg/d IV 48 h): 2155 ± 2338 mm*hr
- Dyspnea AUC Change from baseline to Day 14 (VAS; mm*hr) ([1]; 250 mcg/kg/d IV 48 h): 6856 ± 7923 mm*hr
- time at which a beneficial effect on dyspnea was first seen ([1]; AHF patients with CrCl less than the median, FIG. 8): 6 h
- time at which a beneficial effect on dyspnea was first seen ([1]; AHF patients with SBP greater than the median, FIG. 7): 6 h
- onset of improvement in dyspnea ([1]; all relaxin-treated AHF patients): ≤ 6 h
- serum concentration at which relaxin was shown to be fully effective ([1]; see FIG. 6): 3 to 6 ng/mL
- blood pressure [2]: stable decreases in blood pressure
- hypotensive events [2]: did not experience any serious hypotensive events; also recorded: None of the patients developed hypotension during dosing
- predicted creatinine clearance (renal function) [2]: statistically significant increase in predicted creatinine clearance; also recorded: stable improvement in renal function
